Measurements from ChEMBL document CHEMBL4680132, “Tuning isoform selectivity and bortezomib sensitivity with a new class of alkenyl indene PDI inhibitor” (Eur J Med Chem, 2020).
Calls of active or inactive are those of the source. No cut-off for these calls is given here.

How the values were obtained:
[1] = target: T1, Protein disulfide-isomerase A3 (Homo sapiens, UniProt P30101); experiment: Inhibition of PDIA3 (unknown origin) expressed in Escherichia coli BL21 (DE3) incubated for 1 hr and measured by insulin reduction assay
T1 sequence (P30101 whole entry): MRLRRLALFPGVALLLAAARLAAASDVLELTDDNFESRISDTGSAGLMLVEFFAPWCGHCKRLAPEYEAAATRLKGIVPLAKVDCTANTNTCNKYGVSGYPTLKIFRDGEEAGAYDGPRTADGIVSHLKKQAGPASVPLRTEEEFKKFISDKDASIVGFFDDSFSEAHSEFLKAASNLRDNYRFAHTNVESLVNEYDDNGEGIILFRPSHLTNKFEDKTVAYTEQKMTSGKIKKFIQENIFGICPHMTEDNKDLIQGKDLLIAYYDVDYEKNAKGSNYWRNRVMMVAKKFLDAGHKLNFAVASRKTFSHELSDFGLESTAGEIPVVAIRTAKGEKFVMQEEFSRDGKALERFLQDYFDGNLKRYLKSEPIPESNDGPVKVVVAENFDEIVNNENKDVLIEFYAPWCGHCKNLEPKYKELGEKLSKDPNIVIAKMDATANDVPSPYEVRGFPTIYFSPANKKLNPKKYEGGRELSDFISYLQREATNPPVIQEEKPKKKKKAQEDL

MM1.S [2] = experiment: Inhibition of PDI in human bortezomib-resistant MM1.S cells assessed as induction of ATF4 levels at 0.5 uM incubated for 8 hrs by Western blot analysis
[3] = target: T2, Protein disulfide-isomerase A6 (Homo sapiens, UniProt Q15084); experiment: Inhibition of PDIA6 (unknown origin) expressed in Escherichia coli BL21 (DE3) incubated for 1 hr and measured by insulin reduction assay
T2 sequence (Q15084 whole entry): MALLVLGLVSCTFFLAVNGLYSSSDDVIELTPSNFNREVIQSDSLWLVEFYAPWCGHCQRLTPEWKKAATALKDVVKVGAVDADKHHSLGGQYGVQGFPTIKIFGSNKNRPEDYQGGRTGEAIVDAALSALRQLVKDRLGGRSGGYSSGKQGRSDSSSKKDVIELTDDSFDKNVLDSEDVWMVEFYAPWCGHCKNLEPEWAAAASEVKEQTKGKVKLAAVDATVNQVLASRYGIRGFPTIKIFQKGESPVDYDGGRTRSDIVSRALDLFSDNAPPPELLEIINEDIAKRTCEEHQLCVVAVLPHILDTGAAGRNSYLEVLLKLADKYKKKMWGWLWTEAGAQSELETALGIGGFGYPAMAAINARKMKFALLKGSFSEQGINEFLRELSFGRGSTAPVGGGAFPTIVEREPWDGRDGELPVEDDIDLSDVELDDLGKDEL

MM1.S [4] = experiment: Inhibition of PDI in human bortezomib-resistant MM1.S cells assessed as induction of CHOP levels at 0.5 uM incubated for 8 hrs by Western blot analysis
[5] = target: Thioredoxin domain-containing protein 5 (Homo sapiens, UniProt Q8NBS9); experiment: Inhibition of TXNDC5 (unknown origin)
Sequence of Thioredoxin domain-containing protein 5 (Q8NBS9 whole entry, the tested form may be a part): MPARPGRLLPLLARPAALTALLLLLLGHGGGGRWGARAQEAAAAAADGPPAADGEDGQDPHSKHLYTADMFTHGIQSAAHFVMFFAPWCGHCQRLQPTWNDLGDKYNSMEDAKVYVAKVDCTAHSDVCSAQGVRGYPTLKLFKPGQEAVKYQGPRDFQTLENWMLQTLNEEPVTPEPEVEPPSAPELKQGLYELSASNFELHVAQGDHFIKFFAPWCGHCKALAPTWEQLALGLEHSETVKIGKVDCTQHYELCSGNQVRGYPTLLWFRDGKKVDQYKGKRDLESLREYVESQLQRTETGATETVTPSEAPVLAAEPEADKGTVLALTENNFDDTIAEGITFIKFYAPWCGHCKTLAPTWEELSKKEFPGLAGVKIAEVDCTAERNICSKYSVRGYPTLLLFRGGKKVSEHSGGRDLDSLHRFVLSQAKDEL

[6] = Inhibition of thioredoxin (unknown origin); set-up: species or system Homo sapiens
MM1.S [7] = experiment: Inhibition of PDI in human bortezomib-resistant MM1.S cells assessed as accumulation of poly-ubiquinated protein at 0.5 uM incubated for 8 hrs by Western blot analysis
[8] = target: T3, Protein disulfide-isomerase A4 (Homo sapiens, UniProt P13667); experiment: Inhibition of PDIA4 (unknown origin) expressed in Escherichia coli BL21 (DE3) incubated for 1 hr and measured by insulin reduction assay
T3 sequence (P13667 whole entry): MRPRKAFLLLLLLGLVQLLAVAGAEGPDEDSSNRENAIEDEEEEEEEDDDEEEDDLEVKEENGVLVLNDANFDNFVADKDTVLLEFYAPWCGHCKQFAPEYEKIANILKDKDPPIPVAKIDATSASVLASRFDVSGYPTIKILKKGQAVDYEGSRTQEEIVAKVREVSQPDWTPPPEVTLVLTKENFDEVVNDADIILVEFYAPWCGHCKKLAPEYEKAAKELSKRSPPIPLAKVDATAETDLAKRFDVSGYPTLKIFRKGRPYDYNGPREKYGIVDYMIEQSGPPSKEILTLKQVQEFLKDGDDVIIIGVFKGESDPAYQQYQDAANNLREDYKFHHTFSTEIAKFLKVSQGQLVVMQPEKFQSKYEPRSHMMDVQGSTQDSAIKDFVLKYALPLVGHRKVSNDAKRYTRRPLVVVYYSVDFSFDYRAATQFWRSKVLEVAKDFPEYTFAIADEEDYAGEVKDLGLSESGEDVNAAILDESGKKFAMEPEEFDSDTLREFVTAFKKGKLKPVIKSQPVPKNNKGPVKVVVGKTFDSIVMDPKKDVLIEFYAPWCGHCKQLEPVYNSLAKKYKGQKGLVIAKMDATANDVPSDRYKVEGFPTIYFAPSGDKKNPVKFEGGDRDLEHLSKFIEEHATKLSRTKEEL

MM1.S [9] = experiment: Inhibition of PDI in human bortezomib-resistant MM1.S cells assessed as induction of Nrf2 levels at 0.5 uM incubated for 8 hrs by Western blot analysis
[10] = Inhibition of PDI (unknown origin) expressed in Escherichia coli BL21 (DE3) incubated for 1 hr and measured by insulin reduction assay; set-up: species or system Homo sapiens
Cytochrome P450 3A4 = Cytochrome P450 3A4 (Homo sapiens, UniProt P08684); experiment: Inhibition of CYP3A4 in human liver microsomes using midazolam as substrate incubated for 30 mins by LC-MS/MS analysis; format: ADME; conditions: 0.5 h
Sequence of Cytochrome P450 3A4 (P08684 whole entry): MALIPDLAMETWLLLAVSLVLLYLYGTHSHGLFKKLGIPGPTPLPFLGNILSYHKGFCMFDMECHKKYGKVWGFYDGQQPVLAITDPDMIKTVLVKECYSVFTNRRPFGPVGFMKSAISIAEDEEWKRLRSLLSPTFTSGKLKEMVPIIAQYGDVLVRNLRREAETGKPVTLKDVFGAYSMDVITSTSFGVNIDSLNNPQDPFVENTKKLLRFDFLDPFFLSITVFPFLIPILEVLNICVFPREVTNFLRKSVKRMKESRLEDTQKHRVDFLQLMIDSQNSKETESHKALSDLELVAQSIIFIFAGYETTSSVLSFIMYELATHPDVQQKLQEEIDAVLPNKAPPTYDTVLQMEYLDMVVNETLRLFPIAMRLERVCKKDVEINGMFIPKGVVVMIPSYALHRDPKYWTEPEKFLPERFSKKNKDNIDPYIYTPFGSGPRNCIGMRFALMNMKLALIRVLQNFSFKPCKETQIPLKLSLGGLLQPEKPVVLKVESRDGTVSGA

Compound	IC50 [1]	ATF4 induction (activity call) (MM1.S [2])	IC50 [3]	CHOP induction (activity call) (MM1.S [4])	IC50 [5]	IC50 [6]	poly-ubiquitinated protein accumulation (qualitative) (MM1.S [7])	IC50 [8]	Nrf2 induction (activity call) (MM1.S [9])	IC50 [10]	inhibition (INH) (Cytochrome P450 3A4)	IC50 ([6]; read-out: IC50)
CCCCCCCC/C=C1/C=C(C(F)(F)F)c2cc(OC)c(OC)cc21	20.8 µM	Active	16.3 µM	Active	> 100 µM	Not Active	Active	61.6 µM	Active	1.12 µM		
COc1cc2c(cc1OC)/C(=C/CCCCCCOCc1ccccc1)C=C2C(F)(F)F		Active		Active			Active		Active			
CCCCCC/C=C1\C=C(C(=O)OCC)c2cc(O)c(O)cc21		Active		Active			Active		Active			
CCCCCC/C=C1/C=C(C(F)(F)F)c2cc(O)c(O)cc21		Active		Active			Active		Active			
CCCCCC/C=C1\C=C(C(F)(F)F)c2cc3c(cc21)OCCO3		Active		Active			Active		Active			
CCCCCCCC/C=C1/C=C(C(F)(F)F)c2cc(O)c(O)cc21		Active		Active			Active		Active			
CCCCCCCC/C=C1\C=C(C(F)(F)F)c2cc(O)c(O)cc21	4.8 µM	Active	5.7 µM	Active	12.1 µM		Active	33.1 µM	Active	0.6 µM	Not Active	30.3 µM
FC(F)(F)C1=C/C(=C\CC2CCCCC2)c2cc3c(cc21)OCO3		Active		Active			Active		Active			
FC(F)(F)C1=C/C(=C\CC2CCCC2)c2cc3c(cc21)OCO3		Active		Active			Active		Active			
FC(F)(F)C1=C/C(=C\CCCCCCOCc2ccccc2)c2cc3c(cc21)OCO3		Active		Active			Active		Active			
CCCCCC/C=C1\C=C(C(=O)NC)c2cc(O)c(O)cc21		Active		Active			Active		Active			
COc1cc2c(cc1OC)/C(=C\CCCCCCOCc1ccccc1)C=C2C(F)(F)F		Active		Active			Active		Active			
CCCCCC/C=C1\C=C(C(F)(F)F)c2cc(O)c(O)cc21		Active		Active			Active		Active			
CCCCCCCC/C=C1\C=C(C(F)(F)F)c2cc(OC)c(OC)cc21		Active		Active			Active		Active			
CCCCCC/C=C1\C=C(C(F)(F)F)c2cc3c(cc21)OCO3	16.5 µM	Active	12 µM	Active	> 100 µM	Not Active	Active	> 100 µM	Active	0.79 µM	Not Active	
CCCCCC/C=C1\C=C(C(F)(F)F)c2cc(OC)ccc21		Active		Active			Active		Active			
CCCCCC/C=C1\C=C(C(=O)O)c2cc(O)c(O)cc21		Active		Active			Active		Active			
FC(F)(F)C1=C/C(=C/CCCCCCOCc2ccccc2)c2cc3c(cc21)OCO3		Active		Active			Active		Active			
